Measured values from PubChem BioAssay AID651684 (Sanford-Burnham Center for Chemical Genomics, 2012).
Active and inactive are the calls of the source.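 Rule for the calls: active = any single replicate giving an EC50 below 30 µM; inactive = the rest.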

System: Pro5-aDG cells, alpha-DG glycosylation, IIH6 AlphaLISA
Test: alpha-DG glycosylation activators, EC50, dose response, Pro5-aDG cells, AlphaLISA (AID 651684)

Structure (SMILES) | EC50
COc1ccc(Cc2nc(-c3ccc(NC(=O)c4cccnc4)cc3)no2)cc1 | 1.52 µM
CCC(C)Nc1nc(-c2c[nH]c3ccccc23)cs1 (configuration not stated) | 4.36 µM
CCCCCNCC(=O)Nc1cccc(C(=O)Nc2cccc(C(F)(F)F)c2)c1 | 11.6 µM
Cn1c(=N)n(CC(=O)c2ccc(Br)cc2)c2ccccc21 | 42.7 µM (inactive)
Cc1cccc(/C=C2/Sc3ccc(C(=O)NCCN4CCCC4)cc3NC2=O)c1 | > 80 µM (inactive)
CCOc1ccc(-n2cc(C(=O)N3CCCCCC3)c3cc(OC)c(OC)cc3c2=O)cc1 | 5.6 µM
Cc1cc(C)n(-c2nc(NCCCN(C)C)c3c4c(sc3n2)CCCC4)n1 | 16.1 µM
O=C(Nc1cccc2ccccc12)c1ccc([N+](=O)[O-])s1 | 6.88 µM
CC(C)OC(=O)CN1C(=O)C(=O)c2ccccc21 | 6.56 µM
COc1cccc(C(=O)Cn2c(=N)n(C)c3ccccc32)c1 | 58.4 µM (inactive)
CCCC[n+]1ccn(C2=C([O-])c3ccccc3C(=O)/C2=N\S(=O)(=O)c2ccc(Br)cc2)c1 | 6.95 µM
CCCCN1CCc2c1nc1ccc(Br)cc1c2N | > 80 µM (inactive)
Brc1ccc2ncnc(NCc3ccccc3)c2c1 | 3.34 µM
CCn1cc(CN2CCC(C(=O)Nc3cccc(-c4cccc(Cl)c4)c3)CC2)c(C)n1 | 6.99 µM
CN1CCN(S(=O)(=O)c2cccc(C(=O)Nc3sccc3C#N)c2)CC1 | 37.6 µM
CN1CCN(c2ncnc3c2ncn3[C@H]2CN(Cc3ccc(-c4ccccc4)cc3)C[C@@H](CO)O2)CC1 | 16.1 µM
CCC(c1nnnn1Cc1cccs1)N1CCN(c2nc3ccccc3s2)CC1 (configuration not stated) | 22.6 µM
CCCCCOc1ccc(/C(C)=N/NC2=NCCN2)cc1 | 5.81 µM
COc1ccccc1NC(=O)Nc1nc(C(N)Cc2ccccc2)cs1 (configuration not stated) | > 80 µM (inactive)
C=CCn1c(=N)n(CC(=O)c2ccc(Cl)cc2)c2ccccc21 | 41.6 µM (inactive)
O=C1C(=O)N(CCS(=O)(=O)c2ccccc2)c2ccc(F)cc21 | 9.36 µM

Structure (SMILES) | EC50
CC(C)n1cc(CN2CCCC(C(=O)Nc3cccc(-c4cc5ccccc5[nH]4)c3)C2)cn1 (configuration not stated) | > 80 µM (inactive)
N#Cc1ccsc1NC(=O)c1cccc(-n2cnnn2)c1 | 20.7 µM
CC(C)c1ccc(NC(=O)C2Cc3c(-c4ccc(Cl)cc4)ccnc3O2)cc1 (configuration not stated) | 3.98 µM
CN1N=C(N)c2cn(C3OC(COP(=O)(O)O)C(O)C3O)c3ncnc1c23 (configuration not stated) | 35.1 µM (inactive)
CCn1c(=N)n(CC(=O)c2ccc(Cl)c(Cl)c2)c2ccccc21 | 32 µM (inactive)
O=C(CNC(=O)c1ccccc1Cl)N/N=C/c1ccc([N+](=O)[O-])s1 | 7.48 µM
Cc1cc(Br)ccc1OCCCCNC(C)(C)C | 12.2 µM
Cc1ccc(NC(=O)c2ccc([N+](=O)[O-])s2)cc1S(=O)(=O)N1CCOCC1 | 5.92 µM
CC(=O)c1ccc(N2CCN(C(=O)Nc3ccc(C(C)C)cc3)CC2)cc1 | 12.8 µM
CC(C)N1CCN(c2ccc(OCC3COC(Cn4cncn4)(c4ccc(Cl)cc4Cl)O3)cc2)CC1 (configuration not stated) | 9.77 µM
C/C(=N/NC(=O)C(O)(c1ccccc1)c1ccccc1)c1ccc([N+](=O)[O-])o1 | 12.7 µM
CCc1ccc(C(CNC(=O)c2ccc3c(=O)n(-c4ccccc4F)c(=S)[nH]c3c2)N(C)C)cc1 (configuration not stated) | 1.9 µM
CC(=O)Oc1c(Cl)cc(N(C(C)=O)S(=O)(=O)c2ccccc2)c2ccccc12 | 3.17 µM
N=c1n(CCN2CCOCC2)c2ccccc2n1CC(=O)c1ccc(Cl)c(Cl)c1 | 47.1 µM (inactive)
c1cncc(-c2nnc(-c3cccnc3)nn2)c1 | 8.73 µM
COCCNc1nc(NCCOc2ccccc2)c2sc(-c3ccccc3)cc2n1 | 7.86 µM
Cc1cncn1CCc1nc2c3ccccc3nc(SCC(=O)Nc3cccc(Cl)c3)n2n1 | > 80 µM (inactive)
CCCn1c(=N)n(CC(=O)c2ccc(Cl)c(Cl)c2)c2ccccc21 | 31.2 µM (inactive)
NC(c1csc(Nc2cc(Oc3ccccc3)ncn2)n1)C1CCCCC1 (configuration not stated) | 7.32 µM
O=C(CNC(=O)c1ccccc1)N/N=C/c1ccc([N+](=O)[O-])s1 | 6.46 µM
CC1CCCN(CCCNC(=O)c2nn(C)c3c2CSc2ccccc2-3)C1 (configuration not stated) | 8.18 µM

Structure (SMILES) | EC50
COc1cc(CNC(=O)Nc2nc(C(N)Cc3ccc(Cl)cc3)cs2)cc(OC)c1OC (configuration not stated) | > 80 µM (inactive)
Brc1cccc(-c2nc3c4ccccc4ccn3c2CC2CCCCC2)c1 | 23.7 µM
CC(C)Oc1ccc(OCCCN2CCCCCC2)cc1 | 12.4 µM
CCCCN(C)CCNC(=O)c1cc(-c2cccnc2)nc2ccc(S(=O)(=O)N3CCC(C)CC3)cc12 | > 80 µM (inactive)
C/C=C/c1ccc(OCCCNC2CCCC2)c(OC)c1 | 11.7 µM
CC(C)(C)c1ccc(C(=O)Nc2ccc(C(=O)NCc3cccnc3)cc2)cc1 | 2.48 µM
CCOC(=O)c1cc(-c2ccc(F)cc2)n(CCC(=O)NC2CCN(Cc3ccccc3)CC2)c1C | > 80 µM (inactive)
N#Cc1ccsc1NC(=O)c1ccc2ncsc2c1 | 42.7 µM
CN1CCN(c2ccc(S(=O)(=O)N3CCCCC3)cc2NC(=O)/C=C/c2ccc(OC(F)F)cc2)CC1 | > 80 µM (inactive)
CN(C)CCCNS(=O)(=O)c1ccc(NC2CCCCCC2)c([N+](=O)[O-])c1 | 6.11 µM
CC1CCCN(S(=O)(=O)c2ccc(C(=O)Nc3sc4c(c3C(N)=O)CCN(C)C4)cc2)C1 (configuration not stated) | 12.3 µM
O=C1C(Cl)=C(NCc2ccco2)C(=O)c2ccccc21 | 4.97 µM
CN(C)CCCNC(=O)/C=C/c1ccc(OCc2c(F)cccc2Cl)cc1 | 9.37 µM
CC(C)c1ccc(-c2cc(C(=O)N3CCOCC3)c3cc(Br)ccc3n2)cc1 | 6.31 µM
Cc1cccc(NC(=S)N(CCCN2CCCC2)Cc2cccn2Cc2ccc(Cl)cc2)c1 | > 80 µM (inactive)
CC(C)COc1ccc(CSCCNC(=S)Nc2ccccc2)cc1 | 6.37 µM
Cc1cc(NC2=CC(=O)C(=O)c3ccccc32)no1 | 6.66 µM
CNc1nc(-c2c[nH]c3ccccc23)cs1 | 4.99 µM
Cc1ccnc(-n2c(C)nc3ccccc3c2=O)c1 | > 80 µM (inactive)
Cc1nc(SCC(=O)Nc2cc(C(N)=O)cc(C(N)=O)c2)c2c(C)c(C)sc2n1 | 28.5 µM
COc1cc(CNCCN(C)C)ccc1OCc1c(F)cccc1Cl | 18 µM

Structure (SMILES) | EC50
CCCn1c(=N)n(CC(=O)c2ccc(Cl)cc2)c2ccccc21 | 33.6 µM
O=C(Nc1ccccc1F)c1ccc([N+](=O)[O-])s1 | 8.89 µM
COCCN1CCC(CNCc2cn(-c3cc(C)ccc3C)nc2-c2ccccc2)C1 (configuration not stated) | > 80 µM (inactive)
COc1cc2[nH]c3c(=O)n4c(nc3c2cc1OC)SCCC4 | 6.47 µM
Cc1cccc(CN2CCC(CNC(=O)Nc3ccc(F)c(Cl)c3)CC2)c1 | 8.57 µM
c1ccc2c(-c3cc(C4CCNCC4)[nH]n3)cccc2c1 | > 80 µM (inactive)
CS(=O)(=O)c1ccc(Nc2nc(C(N)Cc3ccc(Cl)cc3)cs2)cc1 (configuration not stated) | 8.93 µM
CCc1ccc(C2c3[nH]c4ccccc4c3CCN2C(=O)CN2CCN(CC)CC2)cc1 (configuration not stated) | > 80 µM (inactive)
CCc1nc2ccc(C(=O)NC3CCN(Cc4ccccc4)CC3)cn2c1N(C)Cc1cc2ccccc2s1 | 6.07 µM
CCOC(=O)N/N=C\c1ccc([N+](=O)[O-])s1 | 12.3 µM
CCOc1ccc(NC(=O)c2ccc(F)c(S(=O)(=O)N3CCN(c4ccccn4)CC3)c2)cc1 | > 80 µM (inactive)
CCN(CC)CCn1c(=N)n(CC(=O)c2ccc(C)cc2)c2ccccc21 | 24.5 µM
CCOc1ccc(N2CC(C(=O)N3CCN(c4ccccn4)CC3)CC2=O)cc1 (configuration not stated) | 11.8 µM
N=c1c2c(ncn1CCCO)Oc1c(ccc3ccccc13)C2c1ccccc1 (configuration not stated) | > 80 µM (inactive)
COc1cc(/C=C/C(=O)Nc2nc3ccc(S(=O)(=O)NC(C)C)cc3s2)cc(OC)c1OC | 9.21 µM
COc1ccc(CN2CCC(C(=O)Nc3ccc(Oc4cccnc4)cc3)CC2)c(C)c1C | 8.89 µM
Cc1cc(NCc2ccccn2)n2ncc(-c3ccc(Cl)cc3)c2n1 | 3.48 µM
N#Cc1ccc(-c2nc3c4ccccc4ccn3c2CC2CCCCC2)cc1 | 7.97 µM
CCCCCOc1ccc(NC(=O)C(=O)NCC2CCCN2CC)cc1 (configuration not stated) | 8.54 µM
